{"source": "patent US8357833B2", "about": "“Corn plants and seed enhanced for asparagine and protein” (priority 2007, dated 2013)", "key": {"[1]": {"target": "T1, Zea mays asparagine synthetase Zm AsnS1 (SEQ ID NO: 2, encoded by SEQ ID NO: 1) (Zea mays, UniProt B4FFJ0)", "T1 sequence (B4FFJ0 with tags, fused parts or gaps)": "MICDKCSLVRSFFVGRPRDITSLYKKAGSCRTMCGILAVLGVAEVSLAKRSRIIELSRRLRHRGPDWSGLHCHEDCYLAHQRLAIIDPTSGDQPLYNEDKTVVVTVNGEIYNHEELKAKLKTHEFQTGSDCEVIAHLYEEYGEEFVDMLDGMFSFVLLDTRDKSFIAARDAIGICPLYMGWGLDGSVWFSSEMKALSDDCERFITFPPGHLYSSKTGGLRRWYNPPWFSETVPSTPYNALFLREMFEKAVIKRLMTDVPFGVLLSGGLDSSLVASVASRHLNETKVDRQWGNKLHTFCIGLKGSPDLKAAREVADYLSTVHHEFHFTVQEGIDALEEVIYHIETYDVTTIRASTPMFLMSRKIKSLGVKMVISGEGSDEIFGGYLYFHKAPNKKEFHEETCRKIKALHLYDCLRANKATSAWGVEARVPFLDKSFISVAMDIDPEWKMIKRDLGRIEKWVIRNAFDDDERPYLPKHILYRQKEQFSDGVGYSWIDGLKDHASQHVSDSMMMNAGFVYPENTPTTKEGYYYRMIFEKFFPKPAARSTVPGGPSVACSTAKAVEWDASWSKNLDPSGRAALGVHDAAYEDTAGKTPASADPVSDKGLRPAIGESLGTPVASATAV", "experiment": "Kinetics of recombinant his-tagged, refolded maize asparagine synthetase AsnS1 (substrate titration, asparagine by HPLC)", "format": "biochemical", "settings": "100 mM Hepes, pH 8.0, 10 mM MgCl2, read-out: Km(NH4^+)", "method": "The effect of expression of asparagine synthetase genes on asparagine synthetase activity was measured in transgenic events of pMON79706 and pMON92870. Frozen, ground leaf tissue was aliquoted (200-400 mg) into wells from a precooled 96 deep-well plate. Protein was extracted in Buffer A (100 mM Hepes-OH, pH 8.0, 0.1 mM EDTA, 10 mM MgCl2, 2 mM aspartate, 0.5 mM DTT, 67 mM mercaptoethanol, 20% (v/v) glycerol, 0.1 mM ATP, 1% (v/v) P9599 (Sigma Company), 25 mM KCl). A small amount of sand was added to each well. Buffer A was then added to the leaf tissue in the wells at a ratio of 4:1 (buffer:tissue). The plates were then agitated in a paint shaker for 2 min. to mix the sample and then centrifuged at 5000×g for 10 minutes. The supernatant (100-200 μL) was desalted in a 96-well macro spin plate (SNS S025L, The Nest Group Inc., Southboro, Mass.) equilibrated in buffer A. The supernatant was then either assayed immediately or frozen in liquid nitrogen and maintained at −80° C. until used. […] The mixture was then filtered to remove precipitate and asparagine was measured by HPLC. […]"}, "[2]": {"target": "T2, Zea mays asparagine synthetase Zm AsnS4 (SEQ ID NO: 51, encoded by SEQ ID NO: 50) (Zea mays, UniProt B5U8J9)", "T2 construct": "588 aa", "T2 sequence (B5U8J9 1-588)": "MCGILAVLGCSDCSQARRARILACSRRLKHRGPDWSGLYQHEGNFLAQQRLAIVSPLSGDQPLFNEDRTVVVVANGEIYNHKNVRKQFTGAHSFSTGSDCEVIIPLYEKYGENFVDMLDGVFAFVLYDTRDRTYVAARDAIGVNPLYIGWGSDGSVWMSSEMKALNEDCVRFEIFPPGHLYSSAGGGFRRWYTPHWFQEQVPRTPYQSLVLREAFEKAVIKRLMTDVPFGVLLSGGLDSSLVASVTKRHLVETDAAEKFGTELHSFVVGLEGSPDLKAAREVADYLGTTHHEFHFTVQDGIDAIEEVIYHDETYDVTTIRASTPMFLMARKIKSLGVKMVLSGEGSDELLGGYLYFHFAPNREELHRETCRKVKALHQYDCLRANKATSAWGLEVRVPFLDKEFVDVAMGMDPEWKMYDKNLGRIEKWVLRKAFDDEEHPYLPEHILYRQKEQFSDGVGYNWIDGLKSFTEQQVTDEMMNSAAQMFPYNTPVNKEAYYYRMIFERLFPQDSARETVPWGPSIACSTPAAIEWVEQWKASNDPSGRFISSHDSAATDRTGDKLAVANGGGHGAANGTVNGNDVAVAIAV", "experiment": "Kinetics of recombinant his-tagged, refolded maize asparagine synthetase AsnS4 (substrate titration, asparagine by HPLC)", "format": "biochemical", "settings": "100 mM Hepes, pH 8.0, 10 mM MgCl2, read-out: Km(NH4^+)", "method": "The effect of expression of asparagine synthetase genes on asparagine synthetase activity was measured in transgenic events of pMON79706 and pMON92870. Frozen, ground leaf tissue was aliquoted (200-400 mg) into wells from a precooled 96 deep-well plate. Protein was extracted in Buffer A (100 mM Hepes-OH, pH 8.0, 0.1 mM EDTA, 10 mM MgCl2, 2 mM aspartate, 0.5 mM DTT, 67 mM mercaptoethanol, 20% (v/v) glycerol, 0.1 mM ATP, 1% (v/v) P9599 (Sigma Company), 25 mM KCl). A small amount of sand was added to each well. Buffer A was then added to the leaf tissue in the wells at a ratio of 4:1 (buffer:tissue). The plates were then agitated in a paint shaker for 2 min. to mix the sample and then centrifuged at 5000×g for 10 minutes. The supernatant (100-200 μL) was desalted in a 96-well macro spin plate (SNS S025L, The Nest Group Inc., Southboro, Mass.) equilibrated in buffer A. The supernatant was then either assayed immediately or frozen in liquid nitrogen and maintained at −80° C. until used. To assay asparagine synthetase activity, desalted protein extracts (10-50 μL) were added to wells containing 100 μL assay solution (100 mM Hepes, pH 8.0, 10 mM MgCl2, 2 mM aspartate, 5 mM DTT, 10 mM ATP, 1 mM amino(oxy)acetic acid (aspartate amino transferase inhibitor), 1 mM aspartic semialdehyde (asparaginase inhibitor). To start the reaction, glutamine (final concentration of 2 mM for standard assay) was added to the solution, which was then mixed. The assay mixture was then incubated for 1 to 2 hours. The reaction was then stopped by the addition of an equal volume of 20% (w/v) trichloroacetic acid. The mixture was then filtered to remove precipitate and asparagine was measured by HPLC. Sample size was increased from 0.5 μL to 2.5 μL for HPLC, excitation wavelength was reduced from 340 nm to 235 nm, and fluorimeter gain was increased from 10 to 13. […]"}}, "data": [{"smiles": "N", "note": "[NH4^+]", "values": [{"measurement": "Km", "setting": "[1]", "value": 9.9, "unit": "mM"}, {"measurement": "Km", "setting": "[2]", "value": 9, "unit": "mM"}]}]}
